“And” between values parts separate entries of the source, which are not always exact repeats. Equal values may be shown once.
What was measured:
[1] = system: PC-9 xenograft; experiment: In vivo antitumor activity, PC-9 xenograft in NSG mice; parameters: species or system mouse
Experimental: The mouse body mass was recorded as well.

[2] = system: H1975 cells; experiment: CCK-8 antiproliferation assay, H1975; conditions: for Inhibitory efficacy: H1975 cells
[3] = system: A549 cells; experiment: CCK-8 antiproliferation assay, A549; conditions: given as fraction, Repeat 1-3; for Inhibitory efficacy: A549 cells
[4] = system: H460 cells; experiment: CCK-8 antiproliferation assay, H460; conditions: for Inhibitory efficacy: H460 cells
[5] = system: PC-9 cells; experiment: CCK-8 antiproliferation assay, PC-9; conditions: for Inhibitory efficacy: single repeats (Repeat 1-3), given as fraction
[6] = 2uM, given as fraction, Repeat 1-3
[7] = 4uM, given as fraction, Repeat 1-3
[8] = 8uM, given as fraction, Repeat 1-3
[9] = 16uM, given as fraction, Repeat 1-3

C#Cc1cccc(Nc2ncnc3cc(OCCOC)c(OCCOC)cc23)c1 [Erlotinib, reference compound]
tumor volume mean ([1]; Day13, group mean): 75.6221 mm3 | tumor length ([1]; Day13, individual animals): 5.32 mm and 6.15 mm and 5.63 mm and 5.6 mm and 6.4 mm and 5.64 mm and 7.11 mm | tumor volume ([1]; Day13, individual animals): 68.645 mm3 and 111.069 mm3 and 86.3969 mm3 and 32.368 mm3 and 70.688 mm3 and 54.5952 mm3 and 105.592 mm3 | tumor width ([1]; Day13, individual animals): 5.08 mm and 6.01 mm and 5.54 mm and 3.4 mm and 4.7 mm and 4.4 mm and 5.45 mm | tumor volume mean ([1]; Day15, group mean): 46.9389 mm3 | tumor length ([1]; Day15, individual animals): 5.43 mm and 5.76 mm and 4.04 mm and 4.28 mm and 5.96 mm and 6.09 mm and 6.46 mm | tumor volume ([1]; Day15, individual animals): 23.7877 mm3 and 44.4813 mm3 and 30.5668 mm3 and 38.11 mm3 and 66.1086 mm3 and 70.1568 mm3 and 55.3609 mm3 | tumor width ([1]; Day15, individual animals): 2.96 mm and 3.93 mm and 3.89 mm and 4.22 mm and 4.71 mm and 4.8 mm and 4.14 mm | tumor volume mean ([1]; Day17, group mean): 35.7998 mm3 | tumor length ([1]; Day17, individual animals): 4.34 mm and 4.5 mm and 4.68 mm and 3.6 mm and 3.5 mm and 5.64 mm and 5.39 mm | tumor volume ([1]; Day17, individual animals): 40.4974 mm3 and 44.957 mm3 and 28.665 mm3 and 15.138 mm3 and 14.7175 mm3 and 67.7082 mm3 and 38.9158 mm3 | tumor width ([1]; Day17, individual animals): 4.32 mm and 4.47 mm and 3.5 mm and 2.9 mm and 4.9 mm and 3.8 mm | tumor volume mean ([1]; Day19, group mean): 14.0038 mm3 | tumor length ([1]; Day19, individual animals): 2.66 mm and 3.12 mm and 2.47 mm and 0 mm and 3.83 mm and 4.36 mm and 4.91 mm | tumor volume ([1]; Day19, individual animals): 8.246 mm3 and 6.24 mm3 and 5.446 mm3 and 0 mm3 and 21.1079 mm3 and 22.4629 mm3 and 34.5234 mm3 | tumor width ([1]; Day19, individual animals): 2.49 mm and 2 mm and 2.1 mm and 0 mm and 3.32 mm and 3.21 mm and 3.75 mm | Inhibitory efficacy [2, 6]: 0.1989 and 0.1819 | Inhibitory efficacy [2, 7]: 0.3103 and 0.3631 | Inhibitory efficacy [2, 8]: 0.4556 and 0.4424 | Inhibitory efficacy [2, 9]: 0.4821 and 0.5651 | IC50 ([2]; Homo sapiens, NCI-H1975, 48 h, read-out: IC50 (μM) H1975): 12.7 ± 2.76 µM | inhibition at 2 µM ([2]; Homo sapiens, NCI-H1975, read-out: Inhibitory efficacy, H1975 cells, 2uM, given as fraction, Repeat 1-3): 20.1% | inhibition at 4 µM ([2]; Homo sapiens, NCI-H1975, read-out: Inhibitory efficacy, H1975 cells, 4uM, given as fraction, Repeat 1-3): 30.1% | inhibition at 8 µM ([2]; Homo sapiens, NCI-H1975, read-out: Inhibitory efficacy, H1975 cells, 8uM, given as fraction, Repeat 1-3): 42.2% | inhibition at 16 µM ([2]; Homo sapiens, NCI-H1975, read-out: Inhibitory efficacy, H1975 cells, 16uM, given as fraction, Repeat 1-3): 55.9% | Inhibitory efficacy ([3]; 1uM): 0.1312 and 0.1478 | Inhibitory efficacy ([3]; 2uM): 0.2342 and 0.2336 | Inhibitory efficacy ([3]; 4uM): 0.4482 and 0.3384 | Inhibitory efficacy ([3]; 8uM): 0.471 and 0.4975 | Inhibitory efficacy ([3]; 16uM): 0.5265 and 0.5389 | inhibition at 1 µM ([3]; Homo sapiens, A549, read-out: Inhibitory efficacy, A549 cells, 1uM): 22.3% | inhibition at 2 µM ([3]; Homo sapiens, A549, read-out: Inhibitory efficacy, A549 cells, 2uM): 25.5% | inhibition at 4 µM ([3]; Homo sapiens, A549, read-out: Inhibitory efficacy, A549 cells, 4uM): 39% | inhibition at 8 µM ([3]; Homo sapiens, A549, read-out: Inhibitory efficacy, A549 cells, 8uM): 47.8% | inhibition at 16 µM ([3]; Homo sapiens, A549, read-out: Inhibitory efficacy, A549 cells, 16uM): 56% | Inhibitory efficacy ([4]; 1uM, given as fraction, Repeat 1-3): 0.09689 and 0.1206 | Inhibitory efficacy [4, 6]: 0.2063 and 0.1995 | Inhibitory efficacy [4, 7]: 0.3477 and 0.3746 | Inhibitory efficacy [4, 8]: 0.4407 and 0.5067 | Inhibitory efficacy [4, 9]: 0.4651 and 0.4816 | IC50 ([4]; Homo sapiens, NCI-H460, 48 h, read-out: IC50 (μM) H460): 13.3 ± 1.5 µM | inhibition at 1 µM ([4]; Homo sapiens, NCI-H460, read-out: Inhibitory efficacy, H460 cells, 1uM, given as fraction, Repeat 1-3): 6.64% | inhibition at 2 µM ([4]; Homo sapiens, NCI-H460, read-out: Inhibitory efficacy, H460 cells, 2uM, given as fraction, Repeat 1-3): 14.3% | inhibition at 4 µM ([4]; Homo sapiens, NCI-H460, read-out: Inhibitory efficacy, H460 cells, 4uM, given as fraction, Repeat 1-3): 30% | inhibition at 8 µM ([4]; Homo sapiens, NCI-H460, read-out: Inhibitory efficacy, H460 cells, 8uM, given as fraction, Repeat 1-3): 47.8% | inhibition at 16 µM ([4]; Homo sapiens, NCI-H460, read-out: Inhibitory efficacy, H460 cells, 16uM, given as fraction, Repeat 1-3): 47.2% | IC50 ([5]; Homo sapiens, PC-9, 48 h, read-out: IC50 (μM) PC-9): 0.21 ± 0.07 µM | inhibition at 1 µM ([5]; Homo sapiens, PC-9, read-out: Inhibitory efficacy, PC-9, 1uM, single repeats (Repeat 1-3), given as fraction): 60.2% | inhibition at 2 µM ([5]; Homo sapiens, PC-9, read-out: Inhibitory efficacy, PC-9, 2uM, single repeats (Repeat 1-3), given as fraction): 62.2% | inhibition at 4 µM ([5]; Homo sapiens, PC-9, read-out: Inhibitory efficacy, PC-9, 4uM, single repeats (Repeat 1-3), given as fraction): 73.2% | inhibition at 8 µM ([5]; Homo sapiens, PC-9, read-out: Inhibitory efficacy, PC-9, 8uM, single repeats (Repeat 1-3), given as fraction): 72.2% | inhibition at 16 µM ([5]; Homo sapiens, PC-9, read-out: Inhibitory efficacy, PC-9, 16uM, single repeats (Repeat 1-3), given as fraction): 77.6% | Inhibitory efficacy ([5]; PC-9, 1uM, 1 µM): 0.6098 and 0.6255 | Inhibitory efficacy ([5]; PC-9, 2uM, 2 µM): 0.6294 and 0.6255 | Inhibitory efficacy ([5]; PC-9, 4uM, 4 µM): 0.6922 and 0.7284 | Inhibitory efficacy ([5]; PC-9, 8uM, 8 µM): 0.7167 and 0.7137 | Inhibitory efficacy ([5]; PC-9, 16uM, 16 µM): 0.7578 and 0.7647

COCCOc1cc2ncnc(Nc3cccc(-c4cn(Cc5cccc(OC)c5)nn4)c3)c2cc1OCCOC [e5]
melting point: 85 to 88 °C

From PMC8776995 (Frontiers in Chemistry, 2022)
